13 molecules from ChEMBL document CHEMBL1949514, “Design, Synthesis, and Antitumor Activity of 4-Halocolchicines and Their Pro-drugs Activated by Cathepsin B” (ACS Med Chem Lett, 2011) can be followed below.

One data set has as its system HT-29. Kind of data set: Cytotoxicity against human HT-29 cells after 96 hrs using tetracolor one. The settings on record: HT-29, 96 h. The format is functional, cell-based.
Data set [1] is described as follows: Prodrug conversion assessed as (S)-7-Amino-1,2,3,10-tetramethoxy-6,7-dihydro-5H-benzo[a]heptalen-9-one release at 4 uM in presence of bovine spleen cathepsin-B by HPLC analysis. The following applies: cattle. The format is physicochemical.
The nature of data set [2]: Chemical stability of the compound after 24 hrs by HPLC analysis. The format is physicochemical.
Data set [3] has as its system HUVEC. Put plainly: Cytotoxicity against human HUVEC cells after 96 hrs using tetracolor one. The format is ADME, cell-based.
The subject of data set [4] is HUVEC. Put plainly: Selectivity ratio of IC50 for human HUVEC cells to IC50 for human HT-29 cells.
The subject of another data set is A549. Put plainly: Cytotoxicity against human A549 cells after 96 hrs using tetracolor one. The format is functional, cell-based. The settings on record: A549, 96 h.
Data set [5] relates to HCT-116. Kind of data set: Cytotoxicity against human HCT116 cells after 96 hrs using tetracolor one. In kind it is functional, cell-based. The settings on record: HCT-116, 96 h.
Data set [6] has as its system HCT-116. Put plainly: Antitumor activity against human HCT116 cells xenografted in BALB/c mouse assessed as tumor growth inhibition at 1 mg/kg, ip administered on 1, 3 and 5th day measured on day 21 relative to control. The format is functional. The following applies: HCT-116, ip, 504 h, route intraperitoneal, read-out: TGI. (Xenograft models place foreign cells or tissue in a host animal.)

For data set [7], the system named is HCT-116. Put plainly: Antitumor activity against human HCT116 cells xenografted in BALB/c mouse assessed as tumor growth inhibition at 5 mg/kg, ip administered on day 1 to day 5 and day 8 to day 12 measured on day 21 relative to control. In kind it is functional. The following applies: HCT-116, ip, route intraperitoneal, read-out: TGI.
Data set [8] relates to Mus musculus. Kind of data set: Toxicity in human HCT116 cells xenografted BALB/c mouse assessed as mortality at 5 mg/kg, ip administered on day 1 to day 5 and day 8 to day 12 measured on day 21. In kind it is organism-based, HCT-116. Set-up: dose 5 mg/kg, route intraperitoneal. The following applies: in vivo.
Data set [9] deals with HCT-116. Put plainly: Antitumor activity against human HCT116 cells xenografted in BALB/c mouse assessed as tumor growth inhibition at […], ip administered on day 1 to day 5 and day 8 to day 12 measured on day 21 relative to control. The format is functional. The following applies: HCT-116, ip, dose 0.25 mg/kg, route intraperitoneal, read-out: TGI.
Data set [10] has as its system HCT-116. Put plainly: Antitumor activity against human HCT116 cells xenografted in BALB/c mouse assessed as tumor growth inhibition at 1 mg/kg, ip administered on day 1 to day 5 and day 8 to day 12 measured on day 21 relative to control. In kind it is functional. The settings on record: HCT-116, ip, route intraperitoneal, read-out: TGI.
Data set [11] has as its system Mus musculus. Kind of data set: Toxicity in human HCT116 cells xenografted BALB/c mouse assessed as mortality at […], ip administered on day 1 to day 5 and day 8 to day 12 measured on day 21. The following applies: in vivo. Set-up: dose 0.25 mg/kg, route intraperitoneal. In kind it is organism-based, HCT-116.
The test system of data set [12] is Mus musculus. Put plainly: Toxicity in human HCT116 cells xenografted BALB/c mouse assessed as mortality at 1 mg/kg, ip administered on day 1 to day 5 and day 8 to day 12 measured on day 21. The format is organism-based, HCT-116. Further details: dose 1 mg/kg, route intraperitoneal; call rule not given here. The settings on record: in vivo.
The nature of data set [13]: Prodrug conversion assessed as (S)-7-Amino-4-fluoro-1,2,3,10-tetramethoxy-6,7-dihydro-5H-benzo[a]heptalen-9-one release at 4 uM in presence of bovine spleen cathepsin-B by HPLC analysis. In kind it is physicochemical. The following applies: cattle.

Take `COc1cc2c(c(OC)c1OC)-c1ccc(OC)c(=O)cc1[C@@H](NC(=O)OCc1ccc(NC(=O)[C@H](CCCCN)NC(=O)[C@H](Cc3ccccc3)NC(=O)OCc3ccccc3)cc1)CC2`: the figures for the IC50 in the data set with HT-29 and in the data set with HUVEC [3] were 44 nM and 75 nM, respectively. Also, the Drug metabolism result in data set [1] is “Active”. For the same molecule, the Stability entry in data set [2] is given as “Stable”. In the data set on HUVEC [4], the “Ratio IC50” value is on record as 1.7.
With `COc1c(F)c2c(c(OC)c1OC)-c1ccc(OC)c(=O)cc1[C@@H](N)CC2`, the IC50 with HT-29 is 80 nM; with A549, 101 nM; with HUVEC [3] it was 75 nM. The “Ratio IC50” value in the data set with HUVEC [4] was found to be 0.9.
With `COc1cc2c(c(OC)c1OC)-c1ccc(OC)c(=O)cc1[C@@H](NC(C)=O)CC2` [COLCHICINE], the IC50 was determined as 8 nM with HT-29, 54 nM in the data set on A549 and 11 nM in the data set on HCT-116 [5]. The inhibition in vivo at 1 mg/kg in the data set with HCT-116 [6] was determined as 32.8%.
Consider `COc1c(N)c2c(c(OC)c1OC)-c1ccc(OC)c(=O)cc1[C@@H](NC(C)=O)CC2`, for which the IC50 in the data set on HT-29 amounted to 1550 nM; in the data set with A549 it was 2180 nM.
Take `COc1c(Br)c2c(c(OC)c1OC)-c1ccc(OC)c(=O)cc1[C@@H](NC(C)=O)CC2`: the results for the IC50 in the data set on HT-29, in the data set on A549 and with HCT-116 [5] were 6 nM, 14 nM and 7 nM, respectively.
Turning to `COc1c(Cl)c2c(c(OC)c1OC)-c1ccc(OC)c(=O)cc1[C@@H](NC(C)=O)CC2`, the half-inhibitory concentration (IC50) with HT-29 was determined as 10 nM; with A549, 12 nM; with HCT-116 [5] it was 9 nM. For the same molecule, the inhibition in vivo at 5 mg/kg in the data set with HCT-116 [7] was found to be 68.4%. For the same molecule, the Activity entry in the data set with Mus musculus [8] was “Non-toxic”.
Consider `COc1c(O)c2c(c(OC)c1OC)-c1ccc(OC)c(=O)cc1[C@@H](NC(C)=O)CC2`, for which the IC50 in the data set with HT-29 turned out to be 484 nM; in the data set with A549, 225 nM.
Regarding `COc1c(I)c2c(c(OC)c1OC)-c1ccc(OC)c(=O)cc1[C@@H](NC(C)=O)CC2`, the 50% inhibitory concentration (IC50) with HT-29 was 6 nM; in the data set on A549 it was 32 nM; with HCT-116 [5], 7 nM.
Turning to `COc1c(F)c2c(c(OC)c1OC)-c1ccc(OC)c(=O)cc1[C@@H](NC(C)=O)CC2`, the concentration for half-maximal inhibition (IC50) in the data set on HT-29 is 7 nM; in the data set on A549, 33 nM; in the data set on HCT-116 [5], 8 nM. The inhibition in vivo at […] in the data set with HCT-116 [9] was 25%. For the same molecule, in the data set on HCT-116 [10], the inhibition in vivo at 1 mg/kg turned out to be 55.6%. The Activity entry in the data set with Mus musculus [11] and with Mus musculus [12] was “Non-toxic” in each case.
As to `COc1c(Cl)c2c(c(OC)c1OC)-c1ccc(OC)c(=O)cc1[C@@H](N)CC2`, the values for the concentration for half-maximal inhibition (IC50) in the data set with HT-29 and in the data set with A549 were 250 nM and 301 nM, respectively.
As for `COc1c(C=O)c2c(c(OC)c1OC)-c1ccc(OC)c(=O)cc1[C@@H](NC(C)=O)CC2`, the concentration for half-maximal inhibition (IC50) is 128 nM with HT-29, 1010 nM in the data set with A549 and 54 nM with HCT-116 [5].
On to `COc1c(F)c2c(c(OC)c1OC)-c1ccc(OC)c(=O)cc1[C@@H](NC(=O)OCc1ccc(NC(=O)[C@H](CCCCN)NC(=O)[C@H](Cc3ccccc3)NC(=O)OCc3ccccc3)cc1)CC2`, for which the IC50 in the data set on HT-29 was 91 nM; in the data set with HUVEC [3] it was 151 nM. The Drug metabolism result in data set [13] is “Active”. The Stability entry in [2] was “Stable”. For the same molecule, the “Ratio IC50” value with HUVEC [4] is listed as 1.7.
Turning to `COc1c(OC)c2c(c([N+](=O)[O-])c1OC)CC[C@H](NC(C)=O)c1cc(=O)c(OC)ccc1-2`, the IC50 in the data set with HT-29 was 31 nM; in the data set with A549 it was 73 nM; in the data set with HCT-116 [5] it was 38 nM.

A word on the IC50: it is the midpoint of a concentration-inhibition curve. A lower IC50 goes with greater potency.
